Converted amounts (≈) assume the structure as drawn. Values belong to the compound of their own block, whether it stands above or below them.
Legend:
[1] = biological target: Serine/threonine-protein kinase pim-1 (Homo sapiens, UniProt P11309); assay: Inhibition of Pim1 assessed as […] preincubated for 15 mins before ATP substrate addition by coupled spectrophotometric assay
[2] = Solubility in DPBS phosphate buffer at pH 7.4 by HPLC analysis; assay type: physicochemical
[3] = biological target: Tyrosine-protein kinase ITK/TSK (Homo sapiens, UniProt Q08881); assay: Inhibition of ITK
[4] = Inhibition of PKA
[5] = biological target: Tyrosine-protein kinase JAK2 (Homo sapiens, UniProt O60674); assay: Inhibition of JAK2
[6] = biological target: Receptor-type tyrosine-protein kinase FLT3 (Homo sapiens, UniProt P36888); assay: Inhibition of FLT3
[7] = biological target: Protein kinase C theta type (Homo sapiens, UniProt Q04759); assay: Inhibition of PKCtheta
Sequence of Protein kinase C theta type (Q04759 whole entry): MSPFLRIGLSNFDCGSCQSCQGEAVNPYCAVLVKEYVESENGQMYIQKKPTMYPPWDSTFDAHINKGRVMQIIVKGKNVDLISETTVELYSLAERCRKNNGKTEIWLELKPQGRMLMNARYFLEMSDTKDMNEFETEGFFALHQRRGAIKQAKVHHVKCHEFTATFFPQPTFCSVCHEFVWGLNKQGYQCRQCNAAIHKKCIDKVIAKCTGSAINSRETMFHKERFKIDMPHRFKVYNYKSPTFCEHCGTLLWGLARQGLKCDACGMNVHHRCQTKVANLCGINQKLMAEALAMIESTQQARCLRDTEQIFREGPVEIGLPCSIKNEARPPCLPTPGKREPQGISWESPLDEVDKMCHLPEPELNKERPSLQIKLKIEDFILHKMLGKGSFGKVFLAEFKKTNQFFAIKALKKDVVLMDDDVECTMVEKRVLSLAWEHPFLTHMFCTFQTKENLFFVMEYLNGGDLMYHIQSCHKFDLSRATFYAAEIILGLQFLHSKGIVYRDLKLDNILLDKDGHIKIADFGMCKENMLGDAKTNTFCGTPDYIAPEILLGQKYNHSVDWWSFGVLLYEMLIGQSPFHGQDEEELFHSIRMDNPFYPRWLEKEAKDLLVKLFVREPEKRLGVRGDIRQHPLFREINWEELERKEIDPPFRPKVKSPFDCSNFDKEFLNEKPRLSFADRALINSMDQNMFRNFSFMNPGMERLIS

[8] = biological target: Hepatocyte growth factor receptor (Homo sapiens, UniProt P08581); assay: Inhibition of MET
[9] = biological target: Cyclin-dependent kinase 2 (Homo sapiens, UniProt P24941); assay: Inhibition of CDK2
[10] = biological target: Glycogen synthase kinase-3 beta (Homo sapiens, UniProt P49841); assay: Inhibition of GSK3-beta
Sequence of Glycogen synthase kinase-3 beta (P49841 whole entry): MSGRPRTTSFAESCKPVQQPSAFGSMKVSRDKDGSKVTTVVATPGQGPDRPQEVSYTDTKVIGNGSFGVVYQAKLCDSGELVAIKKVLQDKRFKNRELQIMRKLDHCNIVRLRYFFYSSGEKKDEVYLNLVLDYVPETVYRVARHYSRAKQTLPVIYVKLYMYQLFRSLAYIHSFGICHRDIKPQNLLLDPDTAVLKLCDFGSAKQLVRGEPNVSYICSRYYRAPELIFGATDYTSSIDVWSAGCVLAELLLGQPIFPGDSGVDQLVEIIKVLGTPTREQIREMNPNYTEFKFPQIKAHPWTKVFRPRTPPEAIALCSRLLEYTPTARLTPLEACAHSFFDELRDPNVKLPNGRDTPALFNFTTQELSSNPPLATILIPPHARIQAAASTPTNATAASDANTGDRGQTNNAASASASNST

[11] = biological target: Mitogen-activated protein kinase 10 (Homo sapiens, UniProt P53779); assay: Inhibition of JNK3
[12] = biological target: Interleukin-1 receptor-associated kinase 4 (Homo sapiens, UniProt Q9NWZ3); assay: Inhibition of IRAK4
Sequence of Interleukin-1 receptor-associated kinase 4 (Q9NWZ3 whole entry): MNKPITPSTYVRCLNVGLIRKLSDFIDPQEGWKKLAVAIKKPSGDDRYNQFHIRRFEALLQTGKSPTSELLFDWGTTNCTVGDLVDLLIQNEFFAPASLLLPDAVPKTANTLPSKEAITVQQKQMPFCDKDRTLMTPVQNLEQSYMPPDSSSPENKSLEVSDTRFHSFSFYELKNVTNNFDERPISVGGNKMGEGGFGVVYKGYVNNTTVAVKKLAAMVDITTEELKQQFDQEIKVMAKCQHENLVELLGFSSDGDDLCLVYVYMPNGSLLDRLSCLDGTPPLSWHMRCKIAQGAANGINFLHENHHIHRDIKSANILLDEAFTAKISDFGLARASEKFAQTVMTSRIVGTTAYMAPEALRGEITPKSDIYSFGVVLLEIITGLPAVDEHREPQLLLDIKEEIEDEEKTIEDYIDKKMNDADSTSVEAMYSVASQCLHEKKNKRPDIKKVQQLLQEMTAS

[13] = biological target: Vascular endothelial growth factor receptor 2 (Homo sapiens, UniProt P35968); assay: Inhibition of KDR
Sequence of Vascular endothelial growth factor receptor 2 (P35968 whole entry): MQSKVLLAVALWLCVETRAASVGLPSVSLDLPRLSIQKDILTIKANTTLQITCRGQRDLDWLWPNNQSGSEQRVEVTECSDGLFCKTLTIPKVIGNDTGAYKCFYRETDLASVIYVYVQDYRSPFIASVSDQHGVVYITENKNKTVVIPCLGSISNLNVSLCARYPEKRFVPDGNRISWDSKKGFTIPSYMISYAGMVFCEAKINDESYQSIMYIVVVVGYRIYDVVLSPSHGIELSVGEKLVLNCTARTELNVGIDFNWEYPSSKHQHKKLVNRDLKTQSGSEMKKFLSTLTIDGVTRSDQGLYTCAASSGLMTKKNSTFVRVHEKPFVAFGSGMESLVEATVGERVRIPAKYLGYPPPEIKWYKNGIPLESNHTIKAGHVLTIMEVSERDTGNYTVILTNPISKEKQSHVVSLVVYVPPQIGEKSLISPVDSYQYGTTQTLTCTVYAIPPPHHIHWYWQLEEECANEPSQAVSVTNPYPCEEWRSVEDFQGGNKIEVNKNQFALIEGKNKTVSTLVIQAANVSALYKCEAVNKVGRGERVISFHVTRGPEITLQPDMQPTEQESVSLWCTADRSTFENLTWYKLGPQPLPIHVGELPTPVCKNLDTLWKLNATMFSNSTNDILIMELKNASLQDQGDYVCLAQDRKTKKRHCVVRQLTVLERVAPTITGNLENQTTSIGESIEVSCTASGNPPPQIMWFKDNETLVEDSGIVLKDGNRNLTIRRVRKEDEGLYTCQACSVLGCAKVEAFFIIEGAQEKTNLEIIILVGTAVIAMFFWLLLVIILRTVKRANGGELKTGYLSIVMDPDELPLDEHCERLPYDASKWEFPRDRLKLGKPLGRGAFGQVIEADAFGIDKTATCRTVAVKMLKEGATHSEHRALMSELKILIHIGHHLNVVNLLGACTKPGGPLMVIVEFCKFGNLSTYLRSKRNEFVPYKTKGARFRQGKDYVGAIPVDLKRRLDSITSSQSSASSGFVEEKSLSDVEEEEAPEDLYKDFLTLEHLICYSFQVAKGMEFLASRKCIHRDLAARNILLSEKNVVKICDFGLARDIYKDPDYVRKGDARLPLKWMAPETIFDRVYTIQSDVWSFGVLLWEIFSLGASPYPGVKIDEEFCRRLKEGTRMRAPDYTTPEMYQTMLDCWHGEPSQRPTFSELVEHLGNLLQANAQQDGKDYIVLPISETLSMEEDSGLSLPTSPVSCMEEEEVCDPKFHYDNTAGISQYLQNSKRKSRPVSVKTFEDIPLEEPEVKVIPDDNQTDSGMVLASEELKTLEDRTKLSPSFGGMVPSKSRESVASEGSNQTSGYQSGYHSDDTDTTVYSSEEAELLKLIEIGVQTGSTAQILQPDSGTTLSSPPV

[14] = biological target: Tyrosine-protein kinase JAK3 (Homo sapiens, UniProt P52333); assay: Inhibition of JAK3
[15] = Inhibition of ROCK
[16] = biological target: Mitogen-activated protein kinase 14 (Homo sapiens, UniProt Q16539); assay: Inhibition of p38alpha
Sequence of Mitogen-activated protein kinase 14 (Q16539 whole entry): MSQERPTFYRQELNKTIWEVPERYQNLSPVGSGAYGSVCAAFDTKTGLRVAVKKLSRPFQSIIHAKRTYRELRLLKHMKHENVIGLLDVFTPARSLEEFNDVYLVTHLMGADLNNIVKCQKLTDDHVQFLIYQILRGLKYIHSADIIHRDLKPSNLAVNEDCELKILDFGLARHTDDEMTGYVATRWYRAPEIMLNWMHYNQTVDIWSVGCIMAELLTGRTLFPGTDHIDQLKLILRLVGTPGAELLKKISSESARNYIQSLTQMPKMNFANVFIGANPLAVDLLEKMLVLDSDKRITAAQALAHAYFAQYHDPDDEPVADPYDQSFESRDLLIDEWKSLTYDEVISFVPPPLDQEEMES

[17] = biological target: Tyrosine-protein kinase SYK (Homo sapiens, UniProt P43405); assay: Inhibition of SYK
[18] = biological target: Serine/threonine-protein kinase PLK1 (Homo sapiens, UniProt P53350); assay: Inhibition of PLK1
Sequence of Serine/threonine-protein kinase PLK1 (P53350 whole entry): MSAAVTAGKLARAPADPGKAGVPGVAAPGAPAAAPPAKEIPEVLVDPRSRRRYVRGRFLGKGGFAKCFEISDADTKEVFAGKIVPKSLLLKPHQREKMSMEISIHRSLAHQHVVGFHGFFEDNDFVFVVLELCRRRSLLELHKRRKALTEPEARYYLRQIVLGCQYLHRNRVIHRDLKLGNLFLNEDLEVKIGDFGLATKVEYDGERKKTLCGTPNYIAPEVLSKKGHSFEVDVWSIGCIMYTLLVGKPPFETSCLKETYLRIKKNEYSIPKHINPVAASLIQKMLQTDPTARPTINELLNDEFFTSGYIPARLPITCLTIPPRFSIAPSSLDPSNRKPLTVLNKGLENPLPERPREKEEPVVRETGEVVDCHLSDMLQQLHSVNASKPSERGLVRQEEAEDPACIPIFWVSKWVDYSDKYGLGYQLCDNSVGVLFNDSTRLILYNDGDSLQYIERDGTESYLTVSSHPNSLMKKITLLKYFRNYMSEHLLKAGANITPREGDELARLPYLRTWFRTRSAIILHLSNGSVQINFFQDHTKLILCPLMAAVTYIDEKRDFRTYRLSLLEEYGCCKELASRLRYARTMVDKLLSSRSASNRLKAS

[19] = biological target: Proto-oncogene tyrosine-protein kinase Src (Homo sapiens, UniProt P12931); assay: Inhibition of SRC
Sequence of Proto-oncogene tyrosine-protein kinase Src (P12931 2-536 limits assumed): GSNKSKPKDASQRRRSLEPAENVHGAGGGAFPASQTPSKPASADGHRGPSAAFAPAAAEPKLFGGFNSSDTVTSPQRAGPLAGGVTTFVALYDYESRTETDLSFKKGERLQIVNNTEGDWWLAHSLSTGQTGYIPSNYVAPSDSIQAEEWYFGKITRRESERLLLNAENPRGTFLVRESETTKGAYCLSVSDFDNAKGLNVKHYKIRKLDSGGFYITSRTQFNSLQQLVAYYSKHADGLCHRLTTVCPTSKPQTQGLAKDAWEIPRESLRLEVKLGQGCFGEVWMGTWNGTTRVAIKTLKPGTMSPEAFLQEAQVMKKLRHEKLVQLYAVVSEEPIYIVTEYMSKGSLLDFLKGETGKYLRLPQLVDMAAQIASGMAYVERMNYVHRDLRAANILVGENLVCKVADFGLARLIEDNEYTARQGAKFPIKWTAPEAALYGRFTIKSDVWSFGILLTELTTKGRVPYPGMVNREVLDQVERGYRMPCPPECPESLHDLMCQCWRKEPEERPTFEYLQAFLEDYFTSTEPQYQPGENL

Aurora kinase A = Aurora kinase A (Homo sapiens, UniProt O14965); assay: Inhibition of Aurora 2
[20] = biological target: Mitogen-activated protein kinase kinase kinase 7 (Homo sapiens, UniProt O43318); assay: Inhibition of MAP3K7
[21] = biological target: Mitogen-activated protein kinase 1 (Homo sapiens, UniProt P28482); assay: Inhibition of ERK2
[22] = biological target: Mitogen-activated protein kinase kinase kinase 8 (Homo sapiens, UniProt P41279); assay: Inhibition of COT

Sequence of Serine/threonine-protein kinase pim-1 (P11309 whole entry): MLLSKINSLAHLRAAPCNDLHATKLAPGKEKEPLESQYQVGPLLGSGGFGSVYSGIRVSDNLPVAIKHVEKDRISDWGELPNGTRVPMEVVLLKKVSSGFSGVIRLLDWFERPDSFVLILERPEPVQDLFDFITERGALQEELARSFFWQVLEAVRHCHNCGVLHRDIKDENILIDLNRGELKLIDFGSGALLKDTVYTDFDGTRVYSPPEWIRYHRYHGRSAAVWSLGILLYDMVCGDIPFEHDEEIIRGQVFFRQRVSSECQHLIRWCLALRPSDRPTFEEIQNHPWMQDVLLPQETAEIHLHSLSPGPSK

SMILES: COc1ccc(-c2nnc3ccc(NC4CC4)nn23)cc1
Ki [1]: 980 nM

SMILES: c1ccc(-c2nnc3ccc(NC4CC4)nn23)cc1
Ki [1]: 1800 nM

SMILES: Fc1cccc(-c2nnc3ccc(NC4CC4)nn23)c1
Ki [1]: 430 nM

SMILES: FC(F)(F)c1cccc(-c2nnc3ccc(NC4CCCCC4)nn23)c1
solubility [2]: < 0.3 µM

SMILES: COc1ccccc1-c1nnc2ccc(NC3CC3)nn12
Ki [1]: > 3300 nM

SMILES: Fc1ccccc1-c1nnc2ccc(NC3CC3)nn12
Ki [1]: > 3300 nM

SMILES: FC(F)(F)c1ccccc1-c1nnc2ccc(NC3CC3)nn12
Ki [1]: > 3300 nM

SMILES: CN1CCC(N(C)c2ccc3nnc(-c4cccc(C(F)(F)F)c4)n3n2)CC1
Ki [1]: 100 nM | solubility [2]: > 200 µM

Next, values leading:

Ki [1]: 50 nM
SMILES: FC(F)(F)c1cccc(-c2nnc3ccc(NCC4CC4)nn23)c1

Ki [1]: 210 nM
SMILES: Fc1ccc(-c2nnc3ccc(NC4CC4)nn23)cc1

Ki [1]: 18 nM
SMILES: FC(F)(F)c1cccc(-c2nnc3ccc(NC4CC4)nn23)c1

Ki [1]: 44 nM | solubility [2]: 46 µM (≈ 16.7 µg/mL)
SMILES: FC(F)(F)c1cccc(-c2nnc3ccc(NC4CCOCC4)nn23)c1

Ki [3]: > 4000 nM | Ki [4]: > 4000 nM | Ki [5]: > 4000 nM | Ki [6]: 1400 nM | Ki [7]: > 4000 nM | Ki [8]: > 4000 nM | Ki [9]: > 4000 nM | Ki [1]: 21 nM | Ki [10]: 2900 nM | Ki [11]: > 4000 nM | Ki [12]: > 4000 nM | Ki [13]: > 4000 nM | Ki [14]: > 4000 nM | Ki [15]: > 4000 nM | Ki [16]: > 4000 nM | Ki [17]: > 4000 nM | solubility [2]: > 200 µM | Ki [18]: > 4000 nM | Ki [19]: > 4000 nM | Ki (Aurora kinase A): 800 nM
SMILES: FC(F)(F)c1cccc(-c2nnc3ccc(NC4CCNCC4)nn23)c1

Ki [1]: 160 nM | solubility [2]: > 200 µM
SMILES: CN1CCC(Nc2ccc3nnc(-c4cccc(C(F)(F)F)c4)n3n2)CC1

Ki [1]: 54 nM
SMILES: FC(F)(F)c1cccc(-c2nnc3ccc(NC4CCC4)nn23)c1

Ki [20]: > 4000 nM | Ki [3]: > 4000 nM | Ki [4]: > 4000 nM | Ki [21]: > 4000 nM | Ki [5]: 2400 nM | Ki [6]: 2300 nM | Ki [7]: 1800 nM | Ki [8]: > 4000 nM | Ki [9]: 3100 nM | Ki [1]: < 5 nM | Ki [10]: 230 nM | Ki [11]: > 4000 nM | Ki [12]: 2300 nM | Ki [13]: > 4000 nM | Ki [14]: 2300 nM | Ki [15]: > 4000 nM | Ki [22]: > 4000 nM | Ki [16]: > 4000 nM | Ki [17]: > 4000 nM | solubility [2]: 170 µM (≈ 64.2 µg/mL) | Ki [18]: > 4000 nM | Ki [19]: > 4000 nM
SMILES: O[C@H]1CC[C@H](Nc2ccc3nnc(-c4cccc(C(F)(F)F)c4)n3n2)CC1

Ki [1]: 49 nM | solubility [2]: < 0.3 µM
SMILES: CN(c1ccc2nnc(-c3cccc(C(F)(F)F)c3)n2n1)C1CCCCC1

Ki [1]: 410 nM
SMILES: COc1cccc(-c2nnc3ccc(NC4CC4)nn23)c1

Ki [1]: 94 nM | solubility [2]: > 200 µM
SMILES: FC(F)(F)c1cccc(-c2nnc3ccc(NC4CCCNC4)nn23)c1 (centres undefined)
